Measured values as given in US8563490B2, “Mild to the skin, foaming detergent composition” (Conopco, Inc., priority 2010, dated 2013).

Target: a-Chymotrypsin from bovine pancreas (Bos taurus, UniProt P00766)
Method: The basis of the mildness assay is the enzymatic activity of Chymotrypsin on a chromogenic substrate. Surfactant mildness is assessed by the effect of a surfactant on the enzyme protein. A harsh surfactant will degrade Chymotrypsin, leading to a lower optical density reading in the reaction well. The enzyme used for this assay is a-Chymotrypsin from bovine pancreas. The enzyme used is the chromogenic substrate for Chymotrypsin, N-Succinyl-Ala-Ala-Pro-Phe-pNA.
The basis of the surfactant protein mildness detecting assay used was the enzymatic activity of Chymotrypsin on a chromogenic substrate. A harsh surfactant degrades Chymotrypsin, leading to a lower absorbance reading. Any reading greater than 0.8% is taken to be a pass for mildness.
For the skin protein protection assay, 70 μl stock buffer solution (33 mM of Tris pH8.0, 180 mM of NaCl, 1 mM of CaCl2), 10 μl substrate stock solution (Ala-Ala-Pro-Phe-pNA; 4 mg/ml) and 20 μl enzyme (α-Chyotrypsin; 10 ng per well) were added to the wells of a 96-well plate together with 100 ul of the formulations pre-diluted 1:10 in water. Reaction mixes were incubated for 45 minutes before colorimetric measurements were taken at 405 nm by a SpectraMax plate reader.

For “Saponin extract from Zizyphus joazero [hh]”, the “Mildness Lsmean (least squares mean of Absorbance values)” value was 0.36.
